Values quoted from earlier work, collected in patent US4746734A, “Partially methylated cyclodextrins and process for producing the same” (Sanraku Incorporated, priority 1985, dated 1988).

Conditions: background statement

OC[C@H]1O[C@@H]2O[C@H]3[C@H](O)[C@@H](O)[C@@H](O[C@H]4[C@H](O)[C@@H](O)[C@@H](O[C@H]5[C@H](O)[C@@H](O)[C@@H](O[C@H]6[C@H](O)[C@@H](O)[C@@H](O[C@H]7[C@H](O)[C@@H](O)[C@@H](O[C@H]8[C@H](O)[C@@H](O)[C@@H](O[C@H]1[C@H](O)[C@H]2O)O[C@@H]8CO)O[C@@H]7CO)O[C@@H]6CO)O[C@@H]5CO)O[C@@H]4CO)O[C@@H]3CO [β-CD]
solubility in water (description of prior art): particularly low in water solubility
